Experiments:
[1] = target: Carbonic anhydrase 1 (Homo sapiens) (UniProt P00915)
Description: Inhibition of human carbonic anhydrase 1 by stopped-flow CO2 hydrase assay

[2] = target: Carbonic anhydrase 2 (Homo sapiens) (UniProt P00918)
Description: Inhibition of human carbonic anhydrase 2 by stopped-flow CO2 hydrase assay

[3] = tested on: Helicobacter pylori
Description: Inhibition of Helicobacter pylori alpha carbonic anhydrase by stopped-flow CO2 hydrase assay

[4] = tested on: Helicobacter pylori; remark: listed apart in the source
Description: Inhibition of Helicobacter pylori beta carbonic anhydrase by stopped-flow CO2 hydrase assay

Carbonic anhydrase 1 (Homo sapiens), sequence (P00915 2-261 limits assumed): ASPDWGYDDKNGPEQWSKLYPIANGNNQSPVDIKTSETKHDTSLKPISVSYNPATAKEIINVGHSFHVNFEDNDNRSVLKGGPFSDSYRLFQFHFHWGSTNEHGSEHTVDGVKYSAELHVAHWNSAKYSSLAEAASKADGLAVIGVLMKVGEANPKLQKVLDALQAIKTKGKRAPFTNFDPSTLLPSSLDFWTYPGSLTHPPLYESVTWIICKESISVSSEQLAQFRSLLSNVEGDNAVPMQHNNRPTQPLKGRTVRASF

CC(C)(C)c1ccc(S(=O)(=O)Nc2ccccc2S(N)(=O)=O)cc1
Kinact [1]: 14.7 µM | Kinact [2]: 295 nM | Kinact [3]: 640 nM | Kinact [4]: 24800 nM

NS(=O)(=O)c1ccc(C(=O)O)cc1
Kinact [3]: 1050 nM | Kinact [4]: 450 nM

CC(C)(C)c1ccc(S(=O)(=O)NCc2ccc(S(N)(=O)=O)cc2)cc1
Kinact [1]: 12.2 µM | Kinact [2]: 104 nM | Kinact [3]: 31 nM | Kinact [4]: 96 nM

CC(C)(C)c1ccc(C(=O)Nc2nnc(S(N)(=O)=O)s2)cc1
Kinact [1]: 0.541 µM | Kinact [3]: 13 nM | Kinact [4]: 28 nM

CC(C)(C)c1ccc(S(=O)(=O)Nc2ccc(S(N)(=O)=O)cc2)cc1
Kinact [1]: 13 µM | Kinact [3]: 60 nM | Kinact [4]: 150 nM

CC(C)(C)c1ccc(C(=O)Nc2ccc(S(N)(=O)=O)cc2)cc1
Kinact [1]: 14.2 µM | Kinact [3]: 79 nM | Kinact [4]: 158 nM

NCc1ccc(S(N)(=O)=O)cc1
Kinact [3]: 873 nM | Kinact [4]: 2360 nM

CCN[C@H]1CN(CCCOC)S(=O)(=O)c2sc(S(N)(=O)=O)cc21
Kinact [3]: 210 nM | Kinact [4]: 128 nM

NS(=O)(=O)c1nnc(-c2ccccc2Cl)s1
Kinact [1]: 0.69 µM | Kinact [4]: 37 nM

CC(C)(C)c1ccc(S(=O)(=O)NCCc2ccc(S(N)(=O)=O)cc2)cc1
Kinact [1]: 12 µM | Kinact [2]: 94 nM | Kinact [3]: 27 nM | Kinact [4]: 45 nM

Nc1ccccc1S(N)(=O)=O
Kinact [3]: 426 nM | Kinact [4]: 16400 nM

Nc1ccc(S(N)(=O)=O)cc1F
Kinact [3]: 1230 nM | Kinact [4]: 1360 nM

CC(C)(C)c1ccc(C(=O)Nc2ccccc2S(N)(=O)=O)cc1
Kinact [1]: 12.3 µM | Kinact [3]: 539 nM | Kinact [4]: 23500 nM

Nc1nccc(Nc2ccc(S(N)(=O)=O)cc2)n1
Kinact [3]: 84 nM | Kinact [4]: 38 nM

NNc1ccc(S(N)(=O)=O)cc1
Kinact [1]: 28 µM | Kinact [4]: 8650 nM

Nc1ccc(S(N)(=O)=O)cc1I
Kinact [1]: 6 µM | Kinact [3]: 510 nM | Kinact [4]: 1150 nM

CC(C)(C)c1ccc(C(=O)Nc2cccc(S(N)(=O)=O)c2)cc1
Kinact [1]: 10.8 µM | Kinact [3]: 316 nM | Kinact [4]: 241 nM

CC(=O)/N=c1/sc(S(N)(=O)=O)nn1C
Kinact [3]: 225 nM | Kinact [4]: 176 nM

CC(C)(C)c1ccc(C(=O)NCCc2ccc(S(N)(=O)=O)cc2)cc1
Kinact [1]: 13.3 µM | Kinact [2]: 127 nM | Kinact [3]: 62 nM | Kinact [4]: 44 nM

Cc1ccc(S(N)(=O)=O)cc1
Kinact [1]: 78.5 µM | Kinact [3]: 430 nM | Kinact [4]: 2470 nM

CC(C)(C)c1ccc(S(=O)(=O)Nc2cccc(S(N)(=O)=O)c2)cc1
Kinact [1]: 9.62 µM | Kinact [3]: 318 nM | Kinact [4]: 213 nM

NS(=O)(=O)c1ccc(CO)cc1
Kinact [3]: 876 nM | Kinact [4]: 236 nM

CC(C)(C)c1ccc(S(=O)(=O)Nc2nnc(S(N)(=O)=O)s2)cc1
Kinact [1]: 0.338 µM | Kinact [3]: 12 nM | Kinact [4]: 24 nM

Nc1ccc(S(N)(=O)=O)cc1Cl
Kinact [3]: 378 nM | Kinact [4]: 1460 nM

Nc1ccc(S(=O)(=O)Nc2nnc(S(N)(=O)=O)s2)cc1
Kinact [3]: 268 nM | Kinact [4]: 64 nM

Nc1ccc(S(N)(=O)=O)cc1Br
Kinact [3]: 452 nM | Kinact [4]: 1240 nM

Nc1ccc(S(=O)(=O)NCCc2ccc(S(N)(=O)=O)cc2)cc1
Kinact [3]: 114 nM | Kinact [4]: 71 nM

CC(C)(C)c1ccc(C(=O)NCc2ccc(S(N)(=O)=O)cc2)cc1
Kinact [1]: 12.3 µM | Kinact [2]: 241 nM | Kinact [3]: 539 nM | Kinact [4]: 101 nM

Nc1ccc(S(=O)(=O)NCc2ccc(S(N)(=O)=O)cc2)cc1
Kinact [3]: 131 nM | Kinact [4]: 87 nM

Cn1nc(S(N)(=O)=O)sc1=N
Kinact [3]: 549 nM | Kinact [4]: 768 nM

— ChEMBL document CHEMBL1148873, “Carbonic anhydrase inhibitors: the beta-carbonic anhydrase from Helicobacter pylori is a new target for sulfonamide and sulfamate inhibitors” (Bioorg Med Chem Lett, 2007)
